Where two headings read alike, the source gives them in different places. Where only a bound is given, the exact number is not on record here.

For one data set, the system named is HCT116^+/+. The data set can be described thus: Antiproliferative assay (MTS, 72 h) on HCT116 wild type. Type of data set: cell-based, human. Conditions: MTS, 72 h incubation, read-out: Activity IC50 HCT116^+/+. How it is done:
(§1) All of the synthesized compounds were tested for their antiproliferative activity against human colon cancer (Table 1). We used both the wild-type and p53-negative cell lines (HCT116^+/+ and HCT116^−/−, respectively). Mutations in the TP53 gene are present in more than 50% of all cancers and often specifically correspond to a difficult therapy, resistance or a bad prognosis[60]–[63]. The active compounds were additionally tested for their cytotoxicity against normal human fibroblasts. We used 5-fluorouracil (5-FLU), doxorubicin (DOX) and CP-31398 as the standards. 5-FLU is one of the first antimetabolites that was dedicated for cancer treatment and is still used for a wide range of cancers including colon carcinoma. Doxorubicin is a DNA topoisomerase II poison with a high intercalating potency, which is able to induce apoptosis through the p53 pathway. Although DOX has been described as being ineffective in some p53 mutants, its level of activity against the p53 null lines is similar. CP-31398, on the other hand, is an experimental drug in the clinical phase and its mechanism of action is through the reactivation some of p53 mutants. Its activity against the p53 null cell lines is greatly diminished and is actually lower than its cytotoxicity.
(§2) The human colon cancer cell line HCT116 wild type was obtained from ATCC and the normal human fibroblast cell lines NHDF were obtained from PromoCell. The human colon cancer cell line HCT116 with a p53 deletion (p53^−/−) was kindly provided by Prof. M. Rusin from the Maria Sklodowska-Curie Memorial Cancer Centre and Institute of Oncology in Gliwice, Poland[89]. The cells were grown as monolayer cultures in Dulbecco’s modified Eagle’s medium with the antibiotic gentamicin (200 μL/100 mL medium) in 75 cm^2 flasks (Nunc). The DMEM for the HCT116 were supplemented with 12% heat-inactivated fetal bovine serum (Sigma-Aldrich, St. Louis, MO, USA) and for NHDF with 15% non-inactivated fetal bovine serum (Sigma Aldrich, St. Louis, MO, USA). The cells were cultured under standard conditions at 37 °C in a humidified atmosphere at 5% CO2.
(§3) The cells were seeded in 96-well plates (Nunc) at a density of 5,000 cells/well (HCT116) and 4,000 cells/well (NHDF) and incubated at 37 °C for 24 h. The assay was performed following a 72 h incubation with varying concentrations of the compounds that were being tested. Then, 20 µL of CellTiter 96® AQueous One Solution-MTS (Promega) was added to each well (with 100 µL DMEM without phenol red) and incubated for 1 h at 37 °C. The optical densities of the samples were analyzed at 490 nm using a Synergy 4 multi-plate reader (BioTek, Winooski, VT, USA). The results are expressed as the percentage of the control and were calculated as the inhibitory concentration (IC50) values (using a GraphPad Prism 7). The IC50 parameter was defined as the compound concentration that was necessary to reduce the proliferation of cells to 50% of the untreated control. Each individual compound was tested in triplicate in a single experiment with each experiment being repeated three or four times.

The test system of another data set is NHDF. The data set can be described thus: Cytotoxicity (MTS, 72 h) against normal human fibroblasts. Type of data set: cell-based. Conditions: MTS, 72 h incubation. On the procedure: as §1, §2, §3
The next data set relates to HCT116^−/−. The data set is described as follows: Antiproliferative assay (MTS, 72 h) on HCT116 with p53 deletion. Type of data set: cell-based, human. Conditions: for IC50: MTS, 72 h incubation. On the procedure:
as §1, §2, §3

In another data set the test system is CT-DNA. The data set can be described thus: Spectrophotometric DNA intercalation assay. Type of data set: binding, calf. Conditions: for % hypochromism / Δε: bound to CT-DNA. The text has this: The fused aromatic rings of the naphthalene moiety and halogen substituents in aniline may guarantee good intercalating properties[71],[72]. On the other hand, the intercalation of DNA may explain the high activity against both the wild-type and p53 mutants as was reported for a series of styrylquinolines. Binding to DNA causes the bases to mismatch or cleave, which results in the arrest of the cell cycle and apoptosis. The effectiveness of the p53 system is one of the most important factors in the response to therapy. We tested the intercalating properties of the selected compounds in a spectrophotometric assay on calf-thymus DNA. The absorption spectra of the tested compounds in the absence and presence of CT-DNA are presented in Figure S1 Supplementary Information and the spectral properties with doxorubicine and CP-31398 are summarized in Table 2.
For the DNA binding studies, Calf-thymus DNA (CT-DNA) was purchased from Sigma- Aldrich. The lyophilized CT-DNA was dissolved in 10 mM Tris-HCl, pH 7.9, mixed gently and left overnight at 4 °C. The purity of the CT-DNA solution was determined by measuring the ratio of UV absorbance at 260 and 280 nm. […] Then, the concentration of CT-DNA was determined from the absorbance at 260 nm using an extinction coefficient of 6600 M^−1cm^−1. The tested compounds including DOX and CP-31398 were dissolved to a concentration of 8.35 mM in DMSO, which was then used as the stock solution for preparing the various concentrations (25, 12.5, 6 and 3 µM) in 1 mL in 10 mM of Tris-HCl (pH 7.9). Afterwards, 18 µM CT-DNA was added to the prepared solutions, which were incubated for 1.5 h at 37 °C with occasional vortexing. The absorption spectra were measured using a Hitachi U-2900 spectrophotometer in the range of 200–500 nm. All absorption spectra were imported into OriginPro 8.0 and compared.

Setting [1] is: for CP-31398 first value (312 nm band).

Turning to `COc1ccc(/C=C/c2nc(NCCCN(C)C)c3ccccc3n2)cc1` [CP-31398, reference compound], the IC50 in the data set with HCT116^+/+ was determined as 18.6 ± 0.92 µM; in the data set on NHDF, 12.3 ± 0.54 µM; in the data set with HCT116^−/−, 26.3 ± 1.41 µM. In the data set on CT-DNA (bound to CT-DNA (18 µM), 1.5 h 37 °C, Tris-HCl pH 7.9), the Changes in absorbance result is on record as “hypochromism”. The “% hypochromism” value in the data set with CT-DNA (setting [1]) is 41.4%; in the data set on CT-DNA (second value (350 nm band)), 37.4%. Besides, the Δε was 1515.6 M⁻¹ cm⁻¹ in the data set on CT-DNA (setting [1]) and 1693.3 M⁻¹ cm⁻¹ in the data set with CT-DNA (second value (350 nm band)). In the data set with CT-DNA (wavelengths of maximum absorption, individual vs DNA-bound compound), the red shift is on record as 0 nm.

Usually melting point stands for the temperature, or range, at which the solid turns liquid. For the molecule `O=C(Nc1ccc(F)c(C(F)(F)F)c1)c1ccc2ccccc2c1O` [7m], the melting point lay in the range of 164 to 166 °C. In the data set with HCT116^+/+ (Homo sapiens, HCT-116), the IC50 turned out to be 12 ± 3.68 µM. Further, the IC50 in the data set on NHDF (Homo sapiens, NHDF) is over 25 µM. Besides, the IC50 in the data set with HCT116^−/− (Homo sapiens, HCT-116) was found to be 14.5 ± 4.53 µM.

For the molecule `O=C(Nc1ccc(C(F)(F)F)cc1Br)c1ccc2ccccc2c1O` [6i], the melting point was in the range of 168 to 170 °C. Besides, in the data set on HCT116^+/+ (Homo sapiens, HCT-116), the IC50 was 3.58 ± 1.25 µM. Further, the IC50 in the data set on NHDF (Homo sapiens, NHDF) was determined as 18.4 ± 1.23 µM. In the data set on HCT116^−/− (Homo sapiens, HCT-116), the IC50 stood at 2.19 ± 0.67 µM.

As to `O=C(Nc1cc(F)c(F)c(F)c1)c1ccc2ccccc2c1O` [4l], the melting point fell in the range of 242 to 247 °C. Besides, the IC50 in the data set on HCT116^+/+ (Homo sapiens, HCT-116) is 1.19 ± 0.31 µM. Moreover, in the data set with NHDF (Homo sapiens, NHDF), the IC50 was 10 ± 0.54 µM. Also, the IC50 with HCT116^−/− (Homo sapiens, HCT-116) was 1.42 ± 0.25 µM.

In the case of `O=C(Nc1ccc(F)cc1Cl)c1ccc2ccccc2c1O` [5m], the melting point was 162 to 166 °C. The IC50 in the data set on HCT116^+/+ (Homo sapiens, HCT-116) came out at 7.57 ± 2.16 µM. The IC50 in the data set with NHDF (Homo sapiens, NHDF) was over 25 µM. Besides, the IC50 in the data set with HCT116^−/− (Homo sapiens, HCT-116) is 8.29 ± 2.92 µM.

On to `COc1ccc([N+](=O)[O-])cc1NC(=O)c1ccc2ccccc2c1O` [2h], for which the melting point lay in the range of 215 to 218 °C. The IC50 with HCT116^+/+ (Homo sapiens, HCT-116) worked out at 7.05 ± 1.75 µM. Moreover, the IC50 in the data set with NHDF (Homo sapiens, NHDF) was over 25 µM. In addition, the IC50 in the data set with HCT116^−/− (Homo sapiens, HCT-116) worked out at 7.42 ± 2.05 µM.

On to `O=C(Nc1cc(Cl)ccc1F)c1ccc2ccccc2c1O` [4s], for which the melting point is 169 to 171 °C. Besides, the IC50 with HCT116^+/+ (Homo sapiens, HCT-116) came out at 8.66 ± 1.61 µM. The IC50 with NHDF (Homo sapiens, NHDF) is over 25 µM. Also, the IC50 with HCT116^−/− (Homo sapiens, HCT-116) is 10.7 ± 1.73 µM.

On to `O=C(Nc1cc(Br)ccc1F)c1ccc2ccccc2c1O` [4t], for which the melting point is 174 to 177 °C. Moreover, the IC50 with HCT116^+/+ (Homo sapiens, HCT-116) came to 11.9 ± 1.28 µM. The IC50 with NHDF (Homo sapiens, NHDF) is over 25 µM. Further, the IC50 with HCT116^−/− (Homo sapiens, HCT-116) was determined as 14 ± 2.2 µM.

As to `O=C(Nc1cccc(Cl)c1F)c1ccc2ccccc2c1O` [4o], the melting point lay within 172 to 174 °C. Moreover, the IC50 in the data set on HCT116^+/+ (Homo sapiens, HCT-116) was determined as 8.78 ± 2.18 µM. Further, the IC50 with NHDF (Homo sapiens, NHDF) is over 25 µM. The IC50 in the data set on HCT116^−/− (Homo sapiens, HCT-116) was 6.76 ± 2.37 µM.

With `O=C(Nc1ccc(Br)c(F)c1)c1ccc2ccccc2c1O` [4v], the melting point fell in the range of 199 to 202 °C. Moreover, in the data set with HCT116^+/+ (Homo sapiens, HCT-116), the IC50 worked out at 10.9 ± 2.69 µM. Besides, the IC50 in the data set on NHDF (Homo sapiens, NHDF) is over 25 µM. The “selectivity towards the p53 null cells (HCT116 p53^−/− vs wild type)” value in the data set on HCT116^−/− was “not selective”. In addition, the IC50 with HCT116^−/− (Homo sapiens, HCT-116) is 12.4 ± 1.11 µM.

In turn, `O=C(Nc1cc(F)cc(C(F)(F)F)c1)c1ccc2ccccc2c1O` [4×] displayed a melting point of 165 to 167 °C. Moreover, the IC50 in the data set with HCT116^+/+ (Homo sapiens, HCT-116) came out at 9.01 ± 0.45 µM. Besides, the IC50 with NHDF (Homo sapiens, NHDF) was found to be 24.1 ± 2.02 µM. Also, in the data set with HCT116^−/− (Homo sapiens, HCT-116), the IC50 is over 25 µM.

As to `O=C(Nc1ccc(Br)c(C(F)(F)F)c1)c1ccc2ccccc2c1O` [7o], the melting point fell in the range of 172 to 173 °C. Also, the IC50 in the data set on HCT116^+/+ (Homo sapiens, HCT-116) is over 25 µM. The IC50 in the data set on NHDF (Homo sapiens, NHDF) is over 25 µM. Moreover, in the data set on HCT116^−/− (Homo sapiens, HCT-116), the IC50 stood at 13.9 ± 3.75 µM.

In the case of `O=C(Nc1cc(F)c(F)cc1F)c1ccc2ccccc2c1O` [4j], the melting point lay within 201 to 204 °C. In addition, in the data set on HCT116^+/+ (Homo sapiens, HCT-116), the IC50 worked out at 1.87 ± 0.35 µM. The IC50 in the data set on NHDF (Homo sapiens, NHDF) came to 24.52 ± 0.03 µM. For the same molecule, in the data set on HCT116^−/− (Homo sapiens, HCT-116), the IC50 was 4.75 ± 0.05 µM.

Molecule `O=C(Nc1ccc(F)cc1F)c1ccc2ccccc2c1O` [4d] gave a melting point of 185 to 187 °C. Besides, the IC50 in the data set with HCT116^+/+ (Homo sapiens, HCT-116) came to 6.55 ± 0.83 µM. The IC50 in the data set on NHDF (Homo sapiens, NHDF) is over 25 µM. For the same molecule, the IC50 in the data set on HCT116^−/− (Homo sapiens, HCT-116) worked out at 11.4 ± 1.92 µM.

In turn, `O=C(Nc1c(F)c(F)c(F)c(F)c1F)c1ccc2ccccc2c1O` [4n] had a melting point of 230 to 234 °C. Besides, the IC50 in the data set on HCT116^+/+ (Homo sapiens, HCT-116) was found to be 11.6 ± 0.74 µM. Moreover, the IC50 with NHDF (Homo sapiens, NHDF) is over 25 µM. Also, in the data set on HCT116^−/− (Homo sapiens, HCT-116), the IC50 stood at 17.5 ± 0.76 µM.

In turn, `O=C(Nc1ccc(F)c(F)c1F)c1ccc2ccccc2c1O` [4i] returned a melting point of 173 to 175 °C. The IC50 in the data set with HCT116^+/+ (Homo sapiens, HCT-116) is 4.28 ± 0.66 µM. The IC50 in the data set on NHDF (Homo sapiens, NHDF) was over 25 µM. Further, in the data set on HCT116^−/− (Homo sapiens, HCT-116), the IC50 is 4.43 ± 0.66 µM.

As to `O=C(Nc1ccc(Cl)c(C(F)(F)F)c1)c1ccc2ccccc2c1O` [7n], the melting point lay in the range of 173 to 175 °C. In addition, the IC50 in the data set on HCT116^+/+ (Homo sapiens, HCT-116) was 9.66 ± 3.17 µM. Also, the IC50 in the data set on NHDF (Homo sapiens, NHDF) is over 25 µM. In addition, the IC50 in the data set with HCT116^−/− (Homo sapiens, HCT-116) turned out to be 18.7 ± 2.78 µM.

(Values after article PMC6476888, “Design and synthesis of anticancer 1-hydroxynaphthalene-2-carboxanilides with a p53 independent mechanism of action” (Scientific Reports, 2019).)
